Drawing on ChEMBL document CHEMBL1150931, “10-Oximeguanacone, the first nitrogenated acetogenin derivative found to be a potent inhibitor of mitochondrial complex I” (J Nat Prod, 1998), this text covers IC50 for seven compounds.

Test [1] can be described thus: Inhibition of NADH-oxidase activity of electron transport protein complex 1 in submitochondrial particles of bovine heart. The arrangement: species or system Bos taurus.
Test [2] in a line: Inhibition of NADH-ubiquinone oxidoreductase activity of electron transport protein complex 1 in submitochondrial particles of bovine heart. The arrangement: species or system Bos taurus.

Turning to `CCCCCCCCCC[C@H](O)[C@H]1CC[C@H]([C@H]2CC[C@H]([C@H](O)CCCC/C(CCCCCCCC3=C[C@H](C)OC3=O)=N\O)O2)O1`, the IC50 in test [1] amounted to 340 pM; in test [2], 680 pM.
For `CCCCCCCCCC[C@H](O)[C@H]1CC[C@H]([C@H]2CC[C@H]([C@H](O)CCCCC(O)CCCCCCCC3=C[C@H](C)OC3=O)O2)O1` (some centres undefined) the same measures were 950 pM and 1900 pM.
On the same counts, the results for `CCCCCCCCCC[C@H](O)[C@H]1CC[C@H]([C@H]2CC[C@H]([C@H](O)CCCCCCCCCCCCC3=C[C@H](C)OC3=O)O2)O1` [BULLANIN] are 320 pM and 440 pM.
Turning to `CCCCCCCCCC[C@H](O)[C@H]1CC[C@H]([C@H]2CC[C@H]([C@H](O)CCCCC(=O)CCCCCCCC3=C[C@H](C)OC3=O)O2)O1` [GUANACONE], the IC50 in test [1] is 1520 pM; in test [2], 2070 pM.
For `CCCCC[C@H](O)CCCC[C@H](O)[C@H]1CC[C@H]([C@H]2CC[C@H]([C@H](O)CCCCCCCCCCCCC3=C[C@H](C)OC3=O)O2)O1` [MOTRILIN] the same measures were 410 pM and 810 pM.
Regarding `CCCCCCCCCC[C@H](O)[C@@H]1CC[C@H]([C@H]2CC[C@@H]([C@H](O)CCCCCCCC[C@@H](O)CC3=C[C@H](C)OC3=O)O2)O1` [ROLLIMEMBRIN], the IC50 in test [1] is 330 pM; in test [2] it was 830 pM.
Consider `CCCCCCCCCC[C@H](O)[C@H]1CC[C@H]([C@H]2CC[C@H]([C@H](O)CCCCCCCCCCC(O)CC3=C[C@H](C)OC3=O)O2)O1` (some centres undefined) [rolliniastatin-2], for which the IC50 in test [1] was 510 pM; in test [2] it was 610 pM.
